Laboratory results reported in paper PMC6843571, “Effects of Single Nucleotide Polymorphism Ala270Ser (rs316019) on the Function and Regulation of hOCT2” (Biomolecules, 2019).
Changes are numbered by the printed parent chain. Several values for one entry are separate records, joined by “and”; a condition that tells them apart may be missing. Equal values may be shown once.

Experiments:
[1] = target: T1, hOCT2 WT (Homo sapiens, UniProt O15244); assay: Inhibition of ASP+ uptake by competitors, hOCT2 WT; assay type: cell-based; settings: 1 µM ASP^+; HEK293 hOCT2 WT cells; 37 °C, pH 7.4; read-out: hOCT2 WT IC50 (apparent affinity, inhibition of ASP^+ uptake)
T1 construct: expressed in transfected cells
T1 sequence (O15244 1-555 S270A): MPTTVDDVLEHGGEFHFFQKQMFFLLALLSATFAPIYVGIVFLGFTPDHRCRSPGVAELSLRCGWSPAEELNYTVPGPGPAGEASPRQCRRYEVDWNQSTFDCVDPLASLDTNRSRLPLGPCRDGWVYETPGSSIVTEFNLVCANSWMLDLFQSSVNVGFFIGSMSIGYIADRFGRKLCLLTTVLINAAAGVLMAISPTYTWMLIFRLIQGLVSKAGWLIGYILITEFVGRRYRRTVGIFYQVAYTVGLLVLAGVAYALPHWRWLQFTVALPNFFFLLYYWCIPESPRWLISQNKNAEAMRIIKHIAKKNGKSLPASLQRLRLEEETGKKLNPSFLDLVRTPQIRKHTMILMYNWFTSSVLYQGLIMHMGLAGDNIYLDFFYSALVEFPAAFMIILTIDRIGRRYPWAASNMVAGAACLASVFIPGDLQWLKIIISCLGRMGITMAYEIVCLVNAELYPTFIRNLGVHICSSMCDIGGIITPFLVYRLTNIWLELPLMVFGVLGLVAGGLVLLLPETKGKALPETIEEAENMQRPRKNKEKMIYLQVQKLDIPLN

[2] = target: T2, hOCT2 WT (Homo sapiens, UniProt O15244, S270A); assay: Inhibition of ASP+ uptake by competitors, hOCT2 WT; assay type: cell-based; settings: 1 µM ASP^+, hOCT2 WT cells; for hOCT2 WT logIC50 ± SEM: log of IC50, in parenthesis in Table 1
T2 construct: expressed in transfected cells
T2 sequence (O15244 1-555 S270A): T1 sequence (O15244 1-555 S270A)

[3] = target: T3, hOCT2 Ala270Ser (Homo sapiens, UniProt O15244); assay: Inhibition of ASP+ uptake by competitors, hOCT2 Ala270Ser; assay type: cell-based; settings: 1 µM ASP^+; for IC50: HEK293 hOCT2 Ala270Ser cells, 37 °C, pH 7.4, read-out: hOCT2 Ala270Ser IC50 (apparent affinity, inhibition of ASP^+ uptake); for hOCT2 Ala270Ser logIC50 ± SEM: log of IC50, in parenthesis in Table 1
T3 construct: expressed in transfected cells
T3 sequence (O15244 1-555): T1 sequence (O15244 1-555 S270A) with A270S

[4] = system: hOCT2 WT-mediated ASP^+ uptake; assay: Rapid regulation of ASP+ uptake, hOCT2 WT cells; assay type: cell-based, human; settings: 1 µM ASP^+, compared to control
Protocol: (§1) Moreover, since it is known that the activity of hOCT2 can be regulated by several kinases, the effect of the Ala270Ser substitution on regulation by calmodulin and p56^lck tyrosine kinase of hOCT2 was investigated. The regulation by these two pathways is conserved along all the OCTs. To study the rapid regulation of hOCT2, cells were incubated for 10 min at 37 °C with calmidazolium (5 µM), a potent specific inhibitor of calmodulin [24], with aminogenistein (10 µM), a specific inhibitor of p56^lck tyrosine kinase, or with ringer-like solution as a control. Regulators were dissolved in ethanol (calmidazolium) or DMSO (aminogenistein) at a concentration that had no impact on ASP^+ transport. After incubation, fluorescence measurements were carried out with 1 µM ASP^+.

[5] = system: hOCT2 Ala270Ser-mediated ASP^+ uptake; assay: Rapid regulation of ASP+ uptake, hOCT2 Ala270Ser cells; assay type: cell-based, human; settings: 1 µM ASP^+, compared to control
Protocol: as §1

[6] = target: T1, hOCT2 WT; assay: ASP+ uptake saturation experiments (microfluorimetry), hOCT2 WT; assay type: cell-based; settings: hOCT2 WT in stably transfected HEK cells; specific uptake (minus uptake with 1 mM TPA^+); 37 °C, pH 7.4
Protocol: (§2) Measurement of hOCT2 function in HEK293 cells was performed using microfluorimetry with the fluorescent organic cation 4-(4-(dimethylamino)styryl)-N-methylpyridinium (ASP^+) as the substrate, as described previously in detail. As shown in previous work, this method allows a real-time measurement of the transporter function. The initial rate of ASP^+ uptake was calculated, as it reflects the activity of the transporter.
(§3) Briefly, ASP^+ cellular fluorescence was measured in a microtiterplate reader (Tecan infinite m200; Tecan, Crailsheim, Germany) at 37 °C using an excitation wavelength of 450 nm and an emission of 590 nm. Before fluorescence measurements, cells confluently grown in 96-well plates were washed in ringer-like solution (in mmol/L: 145 NaCl, 1.6 K2HPO4, 0.4 KH2PO4, 5 D-glucose, 1 MgCl2, 1.3 calcium gluconate, pH 7.4). Cell fluorescence was measured before and after ASP^+ addition to the cells. The kinetic characteristics of hOCT WT and hOCT2 Ala270Ser were investigated performing saturation experiments with increasing ASP^+ concentrations. Non-hOCT2-mediated ASP^+ uptake was evaluated in the presence of a huge amount (1 mM) of tetrapentylammonium (TPA^+) and subtracted from the total ASP^+ uptake in order to evaluate the ASP^+ uptake mediated specifically by hOCT2, as shown already in References. […]

[7] = target: T2, hOCT2 WT; assay: as above; assay type: cell-based; settings: hOCT2 WT in stably transfected HEK cells; specific uptake
Protocol: as §2, §3

[8] = target: T3, hOCT2 Ala270Ser; assay: ASP+ uptake saturation experiments (microfluorimetry), hOCT2 Ala270Ser; assay type: cell-based; settings: hOCT2 Ala270Ser in stably transfected HEK cells
Protocol: as §2, §3

[9] = system: hOCT2 WT cells; assay: Cytoviability (MTT) assay, hOCT2 WT cells; assay type: cell-based, human
Protocol: (§4) The cytotoxicity of cisplatin was evaluated using a modified 3-(4,5-dimethylthiazol-2-yl)-2,5-diphenyltetrazoliumbromid (MTT) assay. The HEK293 cells grown for 24 hours in 96-well plates were incubated for 10 min at 37 °C with different concentrations of cisplatin (Calbiochem, Merck Chemicals GmbH, Darmstadt, Germany) dissolved in a ringer-like solution. The cisplatin solution was then removed, and the cells were grown in fresh medium for 48 hours. Afterwards, the cells were incubated with 10 µL MTT (Sigma, Steinheim, Germany) solution containing 5 mg/mL of the dye for three hours at 37 °C. Then, MTT was removed, and the cells were lysed with a solution containing 10% (w/v) sodium dodecyl sulfate and 40% (v/v) dimethylformamide. After 90 min, absorption was measured at 570 nm in a multiplate reader (Tecan infinite m200, Tecan, Tecan Group Ltd., Crailsheim, Germany).

[10] = system: hOCT2 Ala270Ser cells; assay: Cytoviability (MTT) assay, hOCT2 Ala270Ser cells; assay type: cell-based, human
Protocol: as §4

[11] = target: T1, hOCT2 WT; assay: Cellular platinum accumulation by ICP-MS, hOCT2 WT cells; assay type: cell-based; settings: 2 min incubation with 100 µM cisplatin, mean ± SEM
Protocol: (§5) Intracellular cisplatin concentrations were determined using inductively coupled plasma mass spectrometry (ICP-MS), which provides information on the elemental concentration in samples [27, 28], as described before. To do this, cells were grown for five days on 6-well plates and incubated at 37 °C for 2 min with 2 mL of 100 µM cisplatin freshly prepared in a ringer-like solution. After incubation, cells were rapidly washed with ice-cold PBS and then hypotonically lysed using distilled water and sonication for 15 min. For the ICP-MS analysis, 100 µL of cell lysates together with 100 µL of rhodium standard (Rh 1000 µg/mL, Scpscience, Marktoberdorf, Germany) were mixed with 9.8 mL 2% HNO3. Standard platinum for ICP (Merck) was diluted in 2% HNO3, and linear regression was performed (r² = 0.998 and 0.999). Samples were analyzed using ICP-MS iCap QC, autosampler AccelaAS (Thermo Fisher Scientific, Bremen, Germany) and Qtegra ISDS software (Thermo Fisher Scientific). The protein content of lysed cells was determined by absorption measurements using PicoDrop Pico 1000 (PicoDrop, Saffron Walden, UK).

[12] = target: T3, hOCT2 Ala270Ser; assay: Cellular platinum accumulation by ICP-MS, hOCT2 Ala270Ser cells; assay type: cell-based; settings: 2 min incubation with 100 µM cisplatin, mean ± SEM
Protocol: as §5

[13] = 10 min incubation with 10 µM aminogenistein
[14] = 10 min incubation with 5 µM calmidazolium
[15] = 10 min incubation, then 48 hours in fresh medium
[16] = read-out: EC50 (concentration giving 50% of the toxic effect), MTT assay, 10 min incubation, then 48 hours in fresh medium

IC50 [1]	hOCT2 WT logIC50 ± SEM [2]	IC50 [3]	hOCT2 Ala270Ser logIC50 ± SEM ([3]; hOCT2 Ala270Ser cells)	Compound	also measured
18600 µM	−1.73 ± 0.04	9800 µM	−2.01 ± 0.06	CN1CC(=O)NC1=N [Creatinine, creatinine]	–
900 µM and 868 µM	−3.06 ± 0.05	800 µM and 848 µM	−3.07 ± 0.05	CN(C)C(=N)N=C(N)N [Metformin, metformin]	–
4600 µM	−2.33 ± 0.06	4000 µM	−2.40 ± 0.07	NCCc1c[nH]cn1 [Histamine, histamine]	–
–	–	–	–	Nc1ccc(-c2cc(=O)c3cc(O)ccc3o2)cc1 [aminogenistein]	Effect on hOCT2 WT-mediated ASP^+ uptake (inhibition of p56^lck tyrosine kinase) [4, 13]: strong significant inhibition; Effect on hOCT2 Ala270Ser-mediated ASP^+ uptake (inhibition of p56^lck tyrosine kinase) [5, 13]: strong significant inhibition
87 µM	−4.06 ± 0.05	106 µM	−3.98 ± 0.06	Cc1ncc(C[n+]2csc(CCO)c2C)c(N)n1 [Thiamin, thiamine]	–
–	–	–	–	Clc1ccc(C(c2ccc(Cl)cc2)n2cc[n+](CC(OCc3ccc(Cl)cc3Cl)c3ccc(Cl)cc3Cl)c2)cc1 (stereo not drawn) [calmidazolium]	Effect on hOCT2 WT-mediated ASP^+ uptake (inhibition of calmodulin) [4, 14]: strong significant inhibition; Effect on hOCT2 Ala270Ser-mediated ASP^+ uptake (inhibition of calmodulin) [5, 14]: strong significant inhibition
~5400 µM	−2.27 ± 0.28	~2400 µM	−2.61 ± 0.28	N[C@@H](Cc1c[nH]c2ccccc12)C(=O)O [Tryptophan, tryptophan]	Inhibition of ASP^+ uptake (in words) [2]: inhibit a small part of the ASP^+ uptake only at very high concentrations; Inhibition of ASP^+ uptake (in words) ([3]; hOCT2 Ala270Ser cells): inhibit a small part of the ASP^+ uptake only at very high concentrations
–	–	–	–	CN(C)c1ccc(C=Cc2cc[n+](C)cc2)cc1 [ASP^+, 4-(4-(dimethylamino)styryl)-N-methylpyridinium]	Km [6]: 4 ± 1 µM; Vmax of ASP^+ uptake [7]: 516 ± 23 arbitrary units/µg protein s^2; Vmax of ASP^+ uptake ([8]; specific uptake): 484 ± 50 arbitrary units/µg protein s^2; Km ([8]; specific uptake (minus uptake with 1 mM TPA^+), 37 °C, pH 7.4): 4.9 ± 1.6 µM
–	−2.71 ± 0.06	–	–	CN(C)CCCN1c2ccccc2CCc2ccccc21 [Imipramine, imipramine]	–
23 µM	−4.64 ± 0.12	40 µM	−4.40 ± 0.19	CN/C(=N/CCSCc1nc[nH]c1C)NC#N [Cimetidine, cimetidine]	–

Compound	IC50 [1]	hOCT2 WT logIC50 ± SEM [2]	IC50 [3]	hOCT2 Ala270Ser logIC50 ± SEM ([3]; hOCT2 Ala270Ser cells)	also measured
N.N.[Cl][Pt][Cl] [Cisplatin, cisplatin]	16 µM	−4.80 ± 0.10	9 µM	−5.04 ± 0.11	logEC50 ± SEM, MTT assay [9, 15]: −4.89 ± 0.11; EC50 [9, 16]: 13 µM; logEC50 ± SEM, MTT assay [10, 15]: −4.48 ± 0.05; EC50 [10, 16]: 33 µM; Cellular platinum concentration [11]: 264 ± 10 µg Pt/g protein; Cellular platinum concentration [12]: 221 ± 10 µg Pt/g protein
